# From patent publication US20260297060A1, “COMPOUNDS FOR THE DEGRADATION OF MUTANT BRAF” (C4 THERAPEUTICS, INC., priority 2023, published 2026)
# Read-outs that look alike come from different tables or passages of the source.
# Assay: Pharmacokinetics after 21 days dosing in the efficacy study (plasma, tumor and brain concentrations; plasma AUC at steady state), Example 14
# Format: in vivo, female BALB/c nude mice
# Procedure: Agents were tested in the A375 human melanoma xenografts. Compound 26 and Compound 141 were administered to BALB/c nude mice bearing A375 tumors from PG-DO and dosed via PO twice a day (BID) or third a day (TIP) or dosed P daily (QD) from PG-D. Dabrafenib was administered to BALB/c nude mice bearing A375 tumors from PG-D1 and dosed via P daily (QD). Compound 26 was dosed at 1.5 mg/kg (QD), 2 mg/kg (TID), 3 mg/kg (BID), 6 mg/kg (QD) and 10 mg/kg (BID) for 21 days. Compound 141 was dosed at 0.75 mg/kg (BID), 1 mg/kg (TID), 1.5 mg/kg (BID), 3 mg/kg (QD) and 5 mg/kg (BID) for 21 days. Dabrafenib was dosed at 100 mg/kg for 21 days. This study was non-GLP.
# The plasma samples were collected at predetermined time points for PK analysis. For non-termination plasma collection: the blood samples were collected into the 1.5 mL Eppendorf tubes containing 3 μL of 0.5 M EDTA-K2. And then the anticoagulant blood samples were centrifuged at 2,500 g at 4° C. for 15 minutes. For termination plasma collection: the mice was euthanized at predetermined time points post the treatment, the blood samples were collected into the 1.5 mL Eppendorf tubes containing 15 μL of 0.5 M EDTA-K2. And then the anticoagulant blood samples were centrifuged at 2,500 g at 4° C. for 15 minutes. The plasma samples were separated into 2 aliquots. The 1st was used for PK analysis, and the 2nd was served as backup.
# The tumor samples were collected at predetermined time points for PK and WB analysis. The tumor was dissected out and split into 3 parts. The 1st part was used for PK analysis, the 2nd part was used for WB analysis and the last one was used as backup for the study. The samples were transferred into pre-labeled tubes and quickly froze in liquid nitrogen within 2 minutes after dissection. The samples were stored at −80° C. before analysis.
# The brain samples were collected at predetermined time points for PK and potential WB analysis. The brain was dissected out and split into 3 parts (left brain, right brain upper and right brain lower), the left brain was used for PK, the right brain upper was used for WB and the last one was used as the backup for the study. The samples were transferred into pre-labeled tubes and quickly froze in liquid nitrogen within 2 minutes after dissection. The samples were stored at −80° C. before analysis.
# The harvested plasma and tumor samples were processed for pharmacokinetics analysis by LC-MS/MS with a concentration range of 1.00-1,000 ng/mL for dabrafenib in plasma and 0.0500-50 ng/mL in tumor and brain homogenate, 5.00-10,000 ng/mL for Compound 141 in plasma and 0.200~200 ng/ml in tumor and brain homogenate. 20.0~20,000 ng/mL for Compound 26 in plasma and 0.5~500 ng/mL for Compound 26 tumor and brain homogenate.
# Dabrafenib, Compound 26 and Compound 141 in female BALB/c nude mice plasma (K2-EDTA), tumor and brain homogenate were analyzed by LC-MS/MS (Triple Quad 6500+ Low Mass). Verapamil (5 ng/mL) in acetonitrile: methanol (V: V=95:5) was used as the internal standard for Dabrafenib, Compound 26 and Compound 141 in plasma. Verapamil (0.5 ng/mL) in acetonitrile: methanol (V: V=95:5) was used as the internal standard for Dabrafenib, Compound 26 and Compound 141 in tumor and brain homogenate.
# An aliquot of 10 μL unknown sample, calibration standard, quality control, dilute quality control, single blank and double blank samples were added to the 96-well plate. Each sample for Dabrafenib, Compound 26 and Compound 141 in plasma (except the double blank) was quenched with 200 μL IS respectively (double blank sample was quenched with 200 μL ACN: MeOH (V: V=95:5)); each sample for Dabrafenib, Compound 26 and Compound 141 in tumor and brain(except the double blank) was quenched with 100 μL IS respectively (double blank sample was quenched with 100 μL ACN: MeOH (V: V=95:5)); and then the mixture was vortex-mixed for 5 min at 800 rpm and centrifuged for 15 min at 3220 g (4000 rpm), 4° C. […]
compound,measurement,setting,value
"CC(C)(C)c1nc(-c2cccc(NS(=O)(=O)c3c(F)cccc3F)c2F)c(-c2ccnc(N)n2)s1 [Dabrafenib, dabrafenib, reference compound]",Concentration in Brain,"100 mg/kg p.o. QD x 21 days, 24 h, BQL: below the lower limit of quantitation",BQL^a
same,concentration at 4 h,"mouse, brain, po, 100 mg/kg p.o. QD x 21 days, mean ± SEM, read-out: Concentration in Brain",3.59 ± 0.558 ng/g
same,concentration at 0.25 h,"mouse, plasma, po, 100 mg/kg p.o. QD x 21 days, 0.25 h, mean ± SEM",38700 ± 2110 ng/mL
same,concentration at 0.5 h,"mouse, plasma, po, 100 mg/kg p.o. QD x 21 days, 0.5 h, mean ± SEM",25700 ± 5690 ng/mL
same,concentration at 1 h,"mouse, plasma, po, 100 mg/kg p.o. QD x 21 days, 1 h, mean ± SEM",3270 ± 443 ng/mL
same,concentration at 2 h,"mouse, plasma, po, 100 mg/kg p.o. QD x 21 days, 2 h, mean ± SEM",444 ± 129 ng/mL
same,concentration at 4 h,"mouse, plasma, po, 100 mg/kg p.o. QD x 21 days, mean ± SEM, read-out: Concentration in Plasma",54.4 ± 7.02 ng/mL
same,concentration at 8 h,"mouse, plasma, po, 100 mg/kg p.o. QD x 21 days, 8 h, mean ± SEM",55.4 ± 4.19 ng/mL
same,concentration at 10 h,"mouse, plasma, po, 100 mg/kg p.o. QD x 21 days, 10 h, mean ± SEM",24 ± 6.86 ng/mL
same,concentration at 24 h,"mouse, plasma, po, 100 mg/kg p.o. QD x 21 days, 24 h, read-out: Concentration in Plasma",2.27 ng/mL
same,AUC,"mouse, plasma, po, 100 mg/kg p.o. QD × 21 days, read-out: Plasma AUC at steady state (Day 21), Average",18100 ng·h/mL
same,concentration at 4 h,"mouse, tumor, po, 100 mg/kg p.o. QD x 21 days, mean ± SEM, read-out: Concentration in Tumor",137 ± 7.51 ng/g
same,concentration at 24 h,"mouse, tumor, po, 100 mg/kg p.o. QD x 21 days, 24 h, mean ± SEM, read-out: Concentration in Tumor",1.43 ± 0.191 ng/g
